According to patent EP0942741B1, “LECTIN COMPOSITIONS AND USES THEREOF” (Alizyme Therapeutics Limited, priority 1996, dated 1997):

Tests used:
[1] = Dose range of PHA pre-dosing against 5-FU damage of the gastrointestinal tract (Example 8); assay type: in vivo, rats; settings: pair fed, 150 mg/kg/BW 5-FU, day 9
Experimental: (§1) 300mg of 5-fluorouracil was stirred in 14ml of distilled water. 1M NaOH was added slowly until the 5-FU had dissolved. The solution was made up to a final volume of 20 ml. The final pH of the solution was 8.3. A dose of 150 mg/kg body weight was administered to the animal by intraperitoneal injection. Immediately after the injection, the rats were offered 15 g of the control diet and food was available ad-libitum for the remainder of the experiment.
3 groups of rats (5 rats per group) were fed on the standard diet (Table 1) and gavaged daily with either 200, 100 & 50 mg/kg/day PHA for 3 days. The food intake for each rat was recorded daily. A second set of 3 control groups of rats (5 rats per group) were fed on the standard diet and gavaged daily with 1 ml saline for 3 days. Each animal of the control group was pair fed to an animal in the PHA dosed groups. On the morning of the 4th day, each animal was injected with 150 mg/kg bodyweight 5-FU and then fed the standard diet for 6 days. 2 rats were fed on the standard diet ad libitum for 9 days. On the 9th day, the rats were killed and the animals dissected. After freezing in liquid nitrogen, the wet tissue weights were recorded.

[2] = Protection of rats from 5-FU chemotherapy by oral PHA (Example 7); assay type: in vivo
Experimental: as §1
Four groups, each consisting of 5 rats were maintained on a precise dietary regime for a period of 7 days (Table 11).
Rats (approx […]) pre-dosed with PHA were offered 10 g of the control diet (Table 1) containing 10% lactalbumin. Each animal was given the equivalent of 20 mg PHA in 0.9% saline by gavage. Rats were offered control diet in two feeds at 1000 & 1700 hours. The amount of food given was strictly paired to the amount of diet eaten by the PHA pre-dosed animals. If the animals were immediately post-dosed with PHA, the lectin was administered two hours post 5-FU injection by gavage. Animals neither pre- or post dosed with PHA were administered with 1 ml 0.9% saline by gavage. After 3 days, animals in three of the groups were administered a dose of 150 mg/kg body weight 5-FU. Body weight of each animal was recorded daily and the average body weight calculated.
At the end of the experiment, the animals were sacrificed and then dissected. The dry weights of the major organs were recorded for each animal and the average weights calcurated.
After 7 days, blood was collected from the animals and both the key molecular and cellular components were analysed.

[3] = Paired control 50 mg/kg/day: saline gavage
[4] = Paired control 100 mg/kg/day: saline gavage
[5] = Paired control 200 mg/kg/day: saline gavage
[6] = Treatment 2: LA 3d, inject 5-FU (150 mg/kg i.p.), LA 4d, after 7 days
[7] = Treatment 2: LA 3d, inject 5-FU (150 mg/kg i.p.), LA 4d, blood after 7 days

`O=c1[nH]cc(F)c(=O)[nH]1` [5-FU, 5-fluorouracil] gave a Heum wet weight [1, 3] of 722 mg, a Jejunum wet weight [1, 3] of 761 mg and a Heum wet weight [1, 4] of 747 mg. It also gave a Jejunum wet weight [1, 4] of 783 mg, a Heum wet weight [1, 5] of 753 mg and a Jejunum wet weight [1, 5] of 848 mg. The “Caecum average dry weight” value [2, 6] was 99 ± 11 mg, the “Colon average dry weight” value [2, 6] was 130 ± 11 mg and the “Ileum average dry weight” value [2, 6] was 94 ± 11 mg. For the same compound, the “Jejunum average dry weight” value [2, 6] was 90 ± 8 mg, the “Small intestine average dry weight” value [2, 6] was 509 ± 55 mg and the “Stomach average dry weight” value [2, 6] was 140 ± 7 mg. It also gave an HGB [2, 7] of 12.7 g/100ml, an MCH [2, 7] of 17.3 pg and an MCHC [2, 7] of 34.3 g/100ml. For the same compound, the MCV [2, 7] was 50.4 µm^3, the PLT [2, 7] was 274x10^3 no/mm^3 and the WBC [2, 7] was 3x10^3 no/mm^3. It also gave a fresh body weight ([2]; Treatment 2: LA 3d, inject 5-FU (150 mg/kg i.p.), LA 4d, column 1 of 8 (day not given)) of 102.5 g, a fresh body weight ([2]; Treatment 2: LA 3d, inject 5-FU (150 mg/kg i.p.), LA 4d, column 2 of 8 (day not given)) of 99.9 g and a fresh body weight ([2]; Treatment 2: LA 3d, inject 5-FU (150 mg/kg i.p.), LA 4d, column 3 of 8 (day not given)) of 98.8 g. For the same compound, the fresh body weight ([2]; Treatment 2: LA 3d, inject 5-FU (150 mg/kg i.p.), LA 4d, column 4 of 8 (day not given)) was 101.9 g, the fresh body weight ([2]; Treatment 2: LA 3d, inject 5-FU (150 mg/kg i.p.), LA 4d, column 5 of 8 (day not given)) was 108 g and the fresh body weight ([2]; Treatment 2: LA 3d, inject 5-FU (150 mg/kg i.p.), LA 4d, column 6 of 8 (day not given)) was 110.2 g. For the same compound, the fresh body weight ([2]; Treatment 2: LA 3d, inject 5-FU (150 mg/kg i.p.), LA 4d, column 7 of 8 (day not given)) was 107.9 g, the fresh body weight ([2]; Treatment 2: LA 3d, inject 5-FU (150 mg/kg i.p.), LA 4d, column 8 of 8 (day not given)) was 106.2 g and the daily food intake ([2]; Treatment 2: LA 3d, inject 5-FU (150 mg/kg i.p.), LA 4d, day 1 (pair fed, before injection)) was 4.8 g. The daily food intake ([2]; Treatment 2: LA 3d, inject 5-FU (150 mg/kg i.p.), LA 4d, day 2 (pair fed, before injection)) was 6.22 g, the daily food intake ([2]; Treatment 2: LA 3d, inject 5-FU (150 mg/kg i.p.), LA 4d, day 3 (pair fed, before injection)) was 9.22 g and the daily food intake ([2]; Treatment 2: LA 3d, inject 5-FU (150 mg/kg i.p.), LA 4d, day 4) was 11.3 g. It also gave a daily food intake ([2]; Treatment 2: LA 3d, inject 5-FU (150 mg/kg i.p.), LA 4d, day 5) of 10.4 g, a daily food intake ([2]; Treatment 2: LA 3d, inject 5-FU (150 mg/kg i.p.), LA 4d, day 6) of 6.8 g and a daily food intake ([2]; Treatment 2: LA 3d, inject 5-FU (150 mg/kg i.p.), LA 4d, day 7) of 5.9 g. For the same compound, the “reduction of small intestine dry weight” value ([2]; only lactalbumin in the diet, 5-FU 150 mg/kg) was ~50%.
